Source: ChEMBL document CHEMBL1914321, “Molecular wipes: application to epidemic keratoconjuctivitis” (J Med Chem, 2011)
Each block holds one molecule with its values, some of them ahead of it. The source made the active and inactive calls. The rule behind the calls is not given here.

Assays:
Type in all cases: functional, organism-based
Human adenovirus D37 [1] = assay: Induction of Human adenovirus 37 1477 aggregation by negative staining transmission electron microscopy
Human adenovirus D37 [2] = assay: Inhibition of 35S-labeled Human adenovirus 37 1477 virion binding to human HCE cells at 1:9 compound to PDA ratio formulation prepared by extrusion method after 1 hr by scintillation counting; details: Human mastadenovirus D, 1477, HCE
Human adenovirus D37 [3] = assay: Inhibition of 35S-labeled Human adenovirus 37 1477 virion binding to human HCE cells at 2:8 compound to PDA ratio formulation prepared by extrusion method after 1 hr by scintillation counting; details: Human mastadenovirus D, 1477, HCE
Human adenovirus D37 [4] = assay: Inhibition of 35S-labeled Human adenovirus 37 1477 virion binding to human HCE cells at 1:9 compound to PDA ratio formulation prepared by probe sonication method after 1 hr by scintillation counting; details: Human mastadenovirus D, 1477, HCE
Human adenovirus D37 [5] = assay: Induction of 35S-labeled Human adenovirus 37 1477 aggregation by liquid scintillation counting
Human adenovirus D37 [6] = assay: Inhibition of 35S-labeled Human adenovirus 37 1477 virion binding to human HCE cells at 0.1:9.9 compound to PDA ratio formulation prepared by probe sonication method after 1 hr by scintillation counting; details: Human mastadenovirus D, 1477, HCE
Human adenovirus D37 [7] = assay: Antiviral activity against Human adenovirus 37 1477 in human HCE cells assessed as inhibition of viral infection to host cells after 44 hrs by immunofluorescence microscopic analysis; details: Human mastadenovirus D, 1477, HCE
Human adenovirus D37 [8] = assay: Inhibition of 35S-labeled Human adenovirus 37 1477 virion binding to human HCE cells at 0.5:9.5 compound to PDA ratio formulation prepared by probe sonication method after 1 hr by scintillation counting; details: Human mastadenovirus D, 1477, HCE

SMILES: CCCCCCCCCCCCC#CC#CCCCCCCCCC(=O)NCCOCCOCCOCCC(=O)NCCCCCO[C@]1(C(=O)O)C[C@H](O)[C@@H](NC(C)=O)[C@H]([C@H](O)[C@H](O)CO)O1
IC50 (Human adenovirus D37 [2]): > 50 µM

SMILES: CCCCCCCCCCCCCCCCCC(=O)NCCOCCOCCOCCOCCOCCC(=O)NCCCCCO[C@]1(C(=O)O)C[C@H](O)[C@@H](NC(C)=O)[C@H]([C@H](O)[C@H](O)CO)O1
IC50 (Human adenovirus D37 [2]): > 50 µM

These reach a lower IC50 (Human adenovirus D37 [2]). Values come first.

IC50 (Human adenovirus D37 [2]): 21 µM
SMILES: CCCCCCCCCCCCCCCCCCCCCCCC(=O)NCCOCCOCCOCCOCCOCCC(=O)NCCCCCO[C@]1(C(=O)O)C[C@H](O)[C@@H](NC(C)=O)[C@H]([C@H](O)[C@H](O)CO)O1

IC50 (Human adenovirus D37 [2]): 7 µM
SMILES: CCCCCCCCCCCCC#CC#CCCCCCCCCC(=O)NCCOCCOCCOCCOCCOCCOCCOCCOCCOCCOCCOCCOCCC(=O)NCCCCCO[C@]1(C(=O)O)C[C@H](O)[C@@H](NC(C)=O)[C@H]([C@H](O)[C@H](O)CO)O1

IC50 (Human adenovirus D37 [2]): 4 µM
IC50 (Human adenovirus D37 [3]): 26 µM
IC50 (Human adenovirus D37 [4]): 0.9 µM
IC50 (Human adenovirus D37 [6]): > 5 µM
IC50 (Human adenovirus D37 [8]): < 25 µM
SMILES: CCCCCCCCCCCCC#CC#CCCCCCCCCC(=O)NCCOCCOCCOCCOCCOCCC(=O)NCCCCCO[C@]1(C(=O)O)C[C@H](O)[C@@H](NC(C)=O)[C@H]([C@H](O)[C@H](O)CO)O1
Activity (Human adenovirus D37 [1]): Active
Activity (Human adenovirus D37 [5]): Active
IC50 (Human adenovirus D37 [7]): 0.7 µM
